Earlier results on seven molecules are cited in US12133876B2, “TryNOVID boosts immune system against viruses and variants” (priority 2022, dated 2024).

Data set [1] relates to SARS-COV-2. To be noted: binding to SARS-COV-2 (Kulkarni et al., 2020).
Data set [2] concerns COVID-19. To be noted: high dose; patients requiring hospitalization due to proven COVID-19; plus best-available therapy versus best-available therapy.
For data set [3], the system named is enveloped viruses. The settings on record: Coronavirus, HIV, Measles virus, Herpes simplex virus type 1 and 2, Influenza virus and other listed enveloped viruses (Lieberman et al., 2006).

On to `C=CC(C)=CCC=C(C)C` [ocimene], for which, in data set [1], the “binding affinities in molecular docking” value is given as “good binding affinities”.

Take `Cc1ccc(C(C)C)c(O)c1` [thymol]: the “binding affinities in molecular docking” value in data set [1] is given as “good binding affinities”.

In the case of `CC(C)=C1CC[C@@H](C)CC1=O` [pulegone], the “binding affinities in molecular docking” value in data set [1] is reported as “good binding affinities”.

In the case of `C=C1C2CCC(C2)C1(C)C` (stereo not shown) [camphene], the “binding affinities in molecular docking” value in data set [1] is listed as “good binding affinities”.

For the molecule `CC1CCC(C(C)C)C(O)C1` (stereo not shown) [menthol], the “binding affinities in molecular docking” value in data set [1] is “good binding affinities”.

With `C=C1CC[C@H](O)C/C1=C/C=C1\CCC[C@]2(C)[C@@H]([C@H](C)CCCC(C)(C)O)CC[C@@H]12` [calcifediol, 25-hydroxyvitamin D], the “need for ICU treatment” value in data set [2] is listed as “significantly reduced”.

In the case of `CCCCCCCCCCCC(=O)OCC(O)CO` (stereo not shown) [Monolaurin, glycerol monolaurate], the “inactivation of enveloped viruses” value in data set [3] is recorded as “able to inactivate”.
